{"source": "patent US10849878B2", "about": "(OBSHCHESTVO S OGRANICHENNOY OTVETSTVENNOSTYU “NORMOFARM”, priority 2015, dated 2020)", "key": {"[1]": {"tested_on": "white Wistar rats", "experiment": "suspension test (24 h), antistress and anxiolytic activity", "format": "in vivo, rat", "settings": "60 mg/kg in the form of pills with cocoa, administration day 7"}, "[2]": {"tested_on": "rats", "experiment": "Porsolt helplessness test", "format": "in vivo, rat"}, "[3]": {"tested_on": "male Wistar rats", "settings": "for Dead / Survived: 6 rats"}, "[4]": {"settings": "7 days after the dosing, LiAsc, LiCa 5 mg/kg, phenazepam 0.25 mg"}, "[5]": {"settings": "7 days after the drug withdrawal, 5 mg/kg"}, "[6]": {"settings": "28 days after the dosing, LiAsc, LiCa 5 mg/kg, phenazepam 0.25 mg"}, "[7]": {"settings": "28 days after the drug withdrawal, 5 mg/kg"}, "[8]": {"settings": "single oral dose 6000 mg/kg, 6000 mg/kg"}, "[9]": {"settings": "single oral dose 7000 mg/kg, 7000 mg/kg"}}, "note": "“And” between values parts separate entries of the source, which are not always exact repeats. Equal values may be shown once. Read-outs that look alike come from different tables or passages of the source."}
{"smiles": "O=C1O[C@H]([C@@H](O)CO)C([O-])=C1O.[Li+]", "note": "[lithium ascorbate]", "values": [{"measurement": "Adrenaline level in blood serum", "setting": "[1]", "value": "22.6 ± 4.27", "unit": "µg/L"}, {"measurement": "Adrenalin", "setting": "[2]; [4]", "value": "7.4 ± 1.4", "unit": "µg/L"}, {"measurement": "Duration of activity", "setting": "[2]; [4]", "value": "356.4 ± 26.1", "unit": "s"}, {"measurement": "Duration of immobility", "setting": "[2]; [4]", "value": "243.6 ± 17.6", "unit": "s"}, {"measurement": "Eosinophils (Dunger method) in mm^3", "setting": "[2]; [4]", "value": "783.2 ± 24.7", "unit": "in mm^3"}, {"measurement": "Noradrenalin", "setting": "[2]; [4]", "value": "19.9 ± 0.9", "unit": "µg/L"}, {"measurement": "Number of gastric ulcers", "setting": "[2]; [4]", "value": "1.5 ± 0.6"}, {"measurement": "Adrenalin", "setting": "[2]; [5]", "value": "8.4 ± 0.9", "unit": "µg/L"}, {"measurement": "Duration of activity", "setting": "[2]; [5]", "value": "472.6 ± 29.3", "unit": "s"}, {"measurement": "Duration of immobility", "setting": "[2]; [5]", "value": "127.3 ± 19.7", "unit": "s"}, {"measurement": "Eosinophils (Dunger method) in mm^3", "setting": "[2]; [5]", "value": "923.5 ± 64.2", "unit": "in mm^3"}, {"measurement": "Noradrenalin", "setting": "[2]; [5]", "value": "18.3 ± 3.2", "unit": "µg/L"}, {"measurement": "Number of gastric ulcers", "setting": "[2]; [5]", "value": "1.6 ± 0.9"}, {"measurement": "Adrenalin", "setting": "[2]; [6]", "value": "6.1 ± 0.6", "unit": "µg/L"}, {"measurement": "Duration of activity", "setting": "[2]; [6]", "value": "506.4 ± 31.4", "unit": "s"}, {"measurement": "Duration of immobility", "setting": "[2]; [6]", "value": "93.0 ± 19.3", "unit": "s"}, {"measurement": "Eosinophils (Dunger method) in mm^3", "setting": "[2]; [6]", "value": "987.3 ± 34.8", "unit": "in mm^3"}, {"measurement": "Noradrenalin", "setting": "[2]; [6]", "value": "15.6 ± 0.79", "unit": "µg/L"}, {"measurement": "Number of gastric ulcers", "setting": "[2]; [6]", "value": "0.8 ± 0.2"}, {"measurement": "Adrenalin", "setting": "[2]; [7]", "value": "20.3 ± 9.3", "unit": "µg/L"}, {"measurement": "Duration of activity", "setting": "[2]; [7]", "value": "221.1 ± 19.8", "unit": "s"}, {"measurement": "Duration of immobility", "setting": "[2]; [7]", "value": "377.9 ± 86.4", "unit": "s"}, {"measurement": "Eosinophils (Dunger method) in mm^3", "setting": "[2]; [7]", "value": "409.7 ± 37.9", "unit": "in mm^3"}, {"measurement": "Noradrenalin", "setting": "[2]; [7]", "value": "38.9 ± 10.9", "unit": "µg/L"}, {"measurement": "Number of gastric ulcers", "setting": "[2]; [7]", "value": "5.9 ± 0.4"}, {"measurement": "LD100", "setting": "[3]; oral, white rats of the Wistar line", "value": 8000, "unit": "mg/kg"}, {"measurement": "Dead, %", "setting": "[3]; single oral dose 1000 mg/kg", "value": 0, "unit": "%"}, {"measurement": "Dead", "setting": "[3]; single oral dose 1000 mg/kg", "value": 0}, {"measurement": "Survived", "setting": "[3]; single oral dose 1000 mg/kg", "value": 6}, {"measurement": "Dead, %", "setting": "[3]; single oral dose 2000 mg/kg", "value": 0, "unit": "%"}, {"measurement": "Dead", "setting": "[3]; single oral dose 2000 mg/kg", "value": 0}, {"measurement": "Survived", "setting": "[3]; single oral dose 2000 mg/kg", "value": 6}, {"measurement": "Dead, %", "setting": "[3]; single oral dose 3000 mg/kg", "value": 0, "unit": "%"}, {"measurement": "Dead", "setting": "[3]; single oral dose 3000 mg/kg", "value": 0}, {"measurement": "Survived", "setting": "[3]; single oral dose 3000 mg/kg", "value": 6}, {"measurement": "Dead, %", "setting": "[3]; single oral dose 4000 mg/kg", "value": 0, "unit": "%"}, {"measurement": "Dead", "setting": "[3]; single oral dose 4000 mg/kg", "value": 0}, {"measurement": "Survived", "setting": "[3]; single oral dose 4000 mg/kg", "value": 6}, {"measurement": "Dead, %", "setting": "[3]; single oral dose 5000 mg/kg", "value": 16.6, "unit": "%"}, {"measurement": "Dead", "setting": "[3]; single oral dose 5000 mg/kg", "value": 1}, {"measurement": "Survived", "setting": "[3]; single oral dose 5000 mg/kg", "value": 5}, {"measurement": "Dead, %", "setting": "[3]; single oral dose 6000 mg/kg", "value": 50, "unit": "%"}, {"measurement": "Dead", "setting": "[3]; [8]", "value": "3 and 3/3"}, {"measurement": "Survived", "setting": "[3]; [8]", "value": "3 and 3/3"}, {"measurement": "Dead, %", "setting": "[3]; single oral dose 7000 mg/kg", "value": 50, "unit": "%"}, {"measurement": "Dead", "setting": "[3]; [9]", "value": "3 and 3/3"}, {"measurement": "Survived", "setting": "[3]; [9]", "value": "3 and 3/3"}, {"measurement": "Survived", "setting": "[3]; single oral dose 8000 mg/kg", "value": 0}]}
